Data on three substances can be found in publication PMC10190849, “Rationally designed modular drug delivery platform based on intracellular peptide self‐assembly” (Exploration, 2021).

The nature of data set [1]: ThT (Thioflavin T) assay, critical aggregation/assembly concentration and dispersibility. Particulars: dose dependent assembling profile after incubation with ThT, Figure 3A. The data set is classed as physicochemical. The method, then: For intracellular self-assembly, the rapid transformation from dispersed state to aggregate state in desired site is required. In other words, the molecules need to be stable monomeric states at other locations and present self-assembled states at the required locations. Therefore, location-specific self-assembly characteristics are the decisive factors for the success of molecular design. […] Then, different modification on four domains were carried out to evaluate its dispersity and self-assembly properties. We carried out ThT (Thioflavin T) analytic assay to evaluate whether those predesigned molecules presented relatively dispersed state. ThT is a sensitive probe to the lamellar β-sheet structure. When exposed to the lamellar β-sheet structure, ThT fluorescence was enhanced due to inserting into the lamellar structure.^[ [17] ^] […] In order to validate our hypophysis and quantitively determine the solubility of those molecules, we calculated the critical assembly concentration (CAC) of those molecules based on the ThT analysis. […] However, other molecules with R4 domain modifications all presented a higher CAC with ≥400 μM. […] ThT assay: the ThT assay was utilized to calculate the critical assembling concentration. […] Next, the fluorescence of ThT was measured with the excitation wavelength with 450 nm. Finally, the fluorescence intensity was recorded and normalized.

Data set [2] in a line: TEM imaging of assembled morphology and diameters. The data set is classed as physicochemical. Particulars: result in words. The source says:
To further confirm our speculation, we observe the assembled morphology of these molecules under its CAC concentrations. […] As those results indicated, the modification position of fluorescence molecules largely influenced the dispersity of designed molecules. […] As a threshold, the %SASA value around 75% distinguishes between assembly and soluble states. Thus, the optimal choice for modification position is decisive in %SASA regulation for successful molecular design.
In order to achieve a highly ordered superstructure in vivo, it is necessary to transfer the precursor with higher CAC content to the monomer with lower CAC content at the desired position under the trigger of some chemical reactions. In this work, the pre‐designed molecules trigger the conversion of precursors to monomers transformation through enzyme‐directed hydrolysis, and the substrate (DEVD) was cleaved by caspase 3/7. Due to the increased hydrophobicity and conformational changes, the resultant product further self‐assembled into the required superstructure. The previous study in this work confirmed five molecules with higher dispersity (Pβ‐R4C, Pα‐R4C, Pβ‐R4F, Pβ‐R4P, Pβ‐R4C‐D). Here, we studied the self‐assembly properties of […] related residues of these highly soluble molecules (R‐R4C, R‐R4F, R‐R4P, R‐R4C‐D).^[ [21] ^] […]

In data set [3] the test system is XIAP negative cell line L929. As to the kind of experiment: CLSM imaging of cells coincubated with MDS molecules, XIAP negative cell line. Particulars: 50 μM, 37 °C, 1 h, PBS washing. It is filed as cell-based. The method, then: (§1) Drug delivery efficacy is one of the decisive factors for evaluating the drug delivery systems.
(§2) Cell culturing and CLSM imaging: H460, 786-O, L929 cell lines and EJ, RT112 cell lines were cultured in PRMI-1640 and DMEM respectively with 10% (v: v) fetal bovine serum, 1% penicillin–streptomycin in an incubator (Thermo Scientific) at 37 °C with 5% CO2 and 95% relative humidity. For observing the selectivity of MDS by CLSM imaging, all the cell lines were seeded with 1 x 10^5 cells per well, and cultured for 24 h, the cells were incubated with 50 μM Pβ-R4C and Pβ-R4F respectively at 37 °C for 1 h and followed by PBS washing. Subsequently, the cells were stained with Hoechst 33342 (1 mg ml^-1) at 37 °C for 10 min. Finally, the cells were washed by PBS twice and immediately observed under confocal laser scanning microscopy. For observing the selective drug accumulation by CLSM imaging, the H460 cell and L929 cells were seeded with 1 x 10^5 cells per well, and cultured for 24 h, then cells were incubated with 50 μM Pβ-R4C-D for 1 h, followed by PBS washing and observed by CLSM.

Data set [4] deals with XIAP positive cell lines (H460, 786-O, EJ, RT112). In words: CLSM imaging of cells coincubated with MDS molecules, XIAP positive cell lines. Particulars: 50 μM, 37 °C, 1 h, PBS washing. It is filed as cell-based.
Source text: as §1
In order to evaluate the drug delivery efficacy, we directly observed the Py fluorescence by CLSM imaging. […] In addition, we performed the cell section analysis and directly observed the morphology of assemblies intracellularly (Figure 8D). The intracellular formed nanofibers confirmed the controllable in situ assembly of MDS. All those results verified that the drug delivery system was feasible for highly efficient drug delivery.
as §2, with “For observing the selective drug accumulation by CLSM imaging, the H460 cell and L929 cells were seeded with 1 x 10^5 cells per well, and cultured for 24 h, then cells were incubated with 50 μM Pβ-R4C-D for 1 h, followed by PBS washing and observed by CLSM.” left out

No end group written: not given here. *: point of attachment. FITC = O=C1OC2(c3ccc(O)cc3Oc3cc(O)ccc32)c2ccc(NC(=S)*)cc21

Consider “AVPIAQKDEVDGC(Cy)KLVFFAEG [Pβ-R2C, Pβ with GC on R2 domain conjugated with Cy]”, for which the “molecular concentration at which ThT fluorescence obviously increased” value in data set [1] turned out to be 200 µM. Further, the “assembled morphology (TEM)” value in data set [2] is listed as “nanofibrous structures”.

Regarding “AVPIAQKDEVDKLVFFAEC(FITC)G [Pβ-R4F, Pβ with FITC in R4 domain]”, the “fluorescent signal in cells (CLSM)” value is “No obvious fluorescent signal” in data set [3]; “strong Cy and FITC fluorescent signal” in data set [4].

As to “AVPIAQKDEVDKLVFFAEC(Cy)G [Pβ-R4C, Pβ with fluorescent molecule Cy linked in R4 domain]”, the “fluorescent signal in cells (CLSM)” value in data set [3] was “No obvious fluorescent signal”; in data set [4], “strong Cy and FITC fluorescent signal”.
